Measured values: patent US20220031684A1, “PROPHYLACTIC EFFICACY OF SEROTONIN 4 RECEPTOR AGONISTS AGAINST STRESS” (THE TRUSTEES OF COLUMBIA UNIVERSITY IN THE CITY OF NEW YORK, priority 2019, published 2022)

Assays:
Type in all cases: in vivo
BALB/cJRj mice [1] = assay: Novelty suppressed feeding (NSF), acute anxiolytic-like effect; conditions: GR125487 1 mg/kg i.p. 15 min before RS67333 1.5 mg/kg i.p.
Experimental: (§1) RS67333 (1.5 mg/kg, i.p.), diazepam (1.5 mg/kg, i.p.), fluoxetine (18 mg/kg, i.p.) were injected 45 min before testing in the Elevated Plus Maze (EPM), the Novelty Suppressed Feeding (NSF) or the Open Field (OF) in three independent cohorts of male BALB/cJRj mice.
(§2) To ensure the selectivity of the anxiolytic-like effects of RS67333, in a new cohort of male BALB/cJRj mice, GR125487 (1.0 mg/kg, i.p.) dissolved in 0.9% NaCl solution, was injected 15 minutes before RS67333 administration (1.5 mg/kg, i.p.). EPM or NSF occurred 45 min after RS67333 administration (A-S1). Behavioral consequences of the co-administration of GR125487+RS67333 were compared to RS67333 alone, diazepam (1.5 mg/kg, i.p.) fluoxetine (18 mg/kg, i.p.) and vehicle groups (0.9% saline solution, i.p.).
(§3) For mPFC drug infusion, two bilateral cannulae (75 μm-diameter silica capillary tubing inserted in 27G stainless steel catheter) were implanted in the mPFC [stereotaxic coordinates in mm from bregma: A=+2.10, L=±0.50, V=−2.60, A, anterior; L, lateral; and V, ventral, according to (A-S10)] under anesthesia (chloral hydrate, 400 mg/kg, i.p.). […] Diazepam (1.5 mg/kg) was used as a positive control.
The NSF is a conflict test that elicits competing motivations: the drive to eat and the fear of venturing into the center of a brightly lit arena. The latency to begin eating is used as an index of anxiety/depression-like behavior, because classical anxiolytic drugs as well as chronic antidepressants decrease this measure. The NSF test was carried out during a 10 min period as previously described (A-S12). Briefly, the testing apparatus consisted of a plastic box (50×50×20 cm), the floor of which was covered with approximately 2 cm of wooden bedding. Twenty-four hours prior to behavioral testing, all food was removed from the home cage. At the time of testing, a single pellet of food (regular chow) was placed on a white paper platform positioned in the center of the box. Each animal was placed in a corner of the box, and a stopwatch was immediately started. The latency to eat (defined as the mouse sitting on its haunches and biting the pellet with the use of forepaws) was timed. Immediately afterwards, the animal was transferred to its home cage, and the amount of food consumed by the mouse in the subsequent 5 min was measured, serving as a control for change in appetite as a possible confounding factor.

BALB/cJRj mice [2] = assay: Elevated plus maze (EPM), acute anxiolytic-like effect; conditions: GR125487 1 mg/kg i.p. 15 min before RS67333 1.5 mg/kg i.p.
Experimental: as §1, §2, §3
In a new cohort of male BALB/cJRj mice, p-CPA was administered twice daily (at 0900 and 1700 h) for 3 consecutive days. RS67333 ([…]) and diazepam ([…]) were then intra-mPFC administered 24 h after the final p-CPA administration and behavioral test (EPM) occurred 45 minutes after local infusion.
The EPM is a widely used behavioral assay for rodents and it has been validated to assess the anti-anxiety effects of pharmacological agents (A-S11). This test was performed as described by (A-S1). The maze is a plus-cross-shaped apparatus, with two open arms and two arms closed by walls linked by a central platform 50 cm above the floor. Mice were individually put in the center of the maze facing an open arm and were allowed to explore the maze during 5 min for the behavioral consequences of an acute systemic administration or mPFC infusion and during 6 min for the optogenetic experiments. The time spent in and the numbers of entries into the open arms were used as an anxiety index. All parameters were measured using a videotracker (EPM3C, Bioseb, Vitrolles, France).

129S6/SvEv mice [3] = assay: Forced swim test (FST) after CFC
Experimental: (§4) This chronic CORT elevation dysregulates the hypothalamic-pituitary-adrenal axis (HPA) in a manner similar to that observed in clinical depression. The dose and duration of CORT treatment was selected based on previous studies. CORT (35 μg/ml, equivalent to about 5 mg/kg/day) dissolved in 0.45% hydroxypropyl-o-cyclodextrin (0-CD) or vehicle (VEH) (0.45% j-CD) was available ad libitum in the drinking water in opaque bottles to protect it from light. VEH- and CORT-treated water was changed every 3 days to prevent possible degradation. Contextual Fear Conditioning (CFC): A 3-shock CFC procedure was administered as previously published. Briefly, mice were placed into context A and administered 3 2-s shocks (0.75 mA) at 180 s, 240 s or 300 s following placement into context A. Mice were removed from the context 15 s following the termination of shock (at 317 s). For context retrieval, mice were placed back into context A for 300 s. Electrophysiology: Electrophysiology was conducted as previously described. Statistical Analysis: Results from data analyses are expressed as means±SEM. Alpha was set to 0.05 for all analyses. Data were analyzed using GraphPad Prism v7.0 or v8.0. For all experiments, unless otherwise noted, one- or two-way ANOVAs with repeated-measures were applied to the data as appropriate. Significant main effects and/or interactions were followed by Fisher's PLSD post hoc analysis or unpaired t-tests. Drugs: All drugs were prepared in physiological saline and all injections were administered intraperitoneally (i.p.) in volumes of 0.1 cc per […] body weight unless otherwise noted. Fluoxetine hydrochloride (Flx): Flx (BioTrend Chemicals AG, BG197, Zurich, Germany) was administered in the drinking water (18 mg/kg/day) for 3 weeks before the start of CORT. […] (R,S)-ketamine (K): (R,S)-ketamine (Ketaset III, Ketamine HCl injection, Fort Dodge Animal Health, Fort Dodge, Iowa) was administered in a single dose at 30 mg/kg of body weight 1 week before the start of CFC. […] PF-04995274: PF-04995274 (Sigma, Catalog No. 1331782-27-4, St. Louis, Mo.) was administered a single dose at 3 or 10 mg/kg of body weight 1 week before the start of CFC. PF-04995274 was dissolved in saline using an ultrasonic homogenizer (BioLogics, Model 3000, Manassas, Va.). Osmotic minipump implantation: ALZET osmotic minipumps (Model 2004, […], 28 days) were implanted subcutaneously under isoflurane anesthesia as previously described [S2]. Osmotic minipumps were rotated under the skin two to three times per week. Behavioral Assays: All experiments were approved by the Institutional Animal Care and Use Committee (IACUC) at the New York Psychiatric Institute (NYSPI). Elevated Plus Maze (EPM): Testing was performed as previously described [S3]. Briefly, the maze is a plus-cross-shaped apparatus consisting of four arms, two open and two enclosed by walls, linked by a central platform at a height of 50 cm from the floor. Mice were individually placed in the center of the maze facing an open arm and were allowed to explore the maze for 5 min. The time spent in and the number of entries into the open arms was used as an anxiety index. Videos were scored using ANY-maze behavior tracking software (Stoelting, Wood Dale, Ill.). Novelty-Suppressed Feeding: The NSF is a conflict test that elicits competing motivations: the drive to eat and the fear of venturing into the center of a brightly lit arena. The latency to feed is used as an index of anxiety-like behavior, because classical anxiolytic drugs decrease this measure. The NSF test was carried out during an 8 min period as previously described [S3]. Briefly, the testing apparatus consisted of a plastic box (50×50×20 cm), the floor of which was covered with approximately 2 cm of bedding. For 129S6/SvEv experiments, mice were food restricted for 12 h. For the C57BL/6N experiments, mice were food restricted for 24 h. […]

129S6/SvEv mice [4] = assay: 3-shock contextual fear conditioning (CFC)
Experimental: as §4

[5] = FIG. 4 cohort, Male, FIG. 4F, RMANOVA, Fisher's LSD
[6] = FIG. 4 cohort, Male, FIG. 4G, ANOVA, Fisher's LSD
[7] = FIG. 4 cohort, Male, FIG. 4C, RMANOVA, Fisher's LSD
[8] = FIG. 4 cohort, Male, FIG. 4D, ANOVA, Fisher's LSD

Row | Compound | effect of RS67333 on the latency to feed (NSF) (BALB/cJRj mice [1]) | RS67333-induced increase in time and percent time spent in the open arms (EPM) (BALB/cJRj mice [2]) | RS67333-induced increase of ambulatory distance in the open arms divided by total distance (EPM) (BALB/cJRj mice [2]) | p, FST Day 2 Immobility Time (sec), PF04995274 (3 mg/kg) vs. PF04995274 (10 mg/kg) (129S6/SvEv mice [3]; [5]) | p, FST Day 2 Immobility Time (sec), Saline vs. PF04995274 (3 mg/kg) (129S6/SvEv mice [3]; [5]) | p, FST Day 2 Immobility Time (sec), Saline vs. PF04995274 (10 mg/kg) (129S6/SvEv mice [3]; [5]) | p, FST Day 2 Immobility Time (min 3-6) (sec), Saline vs. PF04995274 (3 mg/kg) (129S6/SvEv mice [3]; [6]) | p, FST Day 2 Immobility Time (min 3-6) (sec), Saline vs. PF04995274 (10 mg/kg) (129S6/SvEv mice [3]; [6]) | immobility, FST day 1 (129S6/SvEv mice [3]; male 129S6/SvEv, (R,S)-ketamine 30, prucalopride 3 or 10, PF-04995274 3 or 10 mg/kg) | immobility time, FST day 2 vs saline (129S6/SvEv mice [3]; male 129S6/SvEv, single injection 1 week before CFC, 10 mg/kg) | p, CFC Re-exposure Freezing (%), PF04995274 (3 mg/kg) vs. PF04995274 (10 mg/kg) (129S6/SvEv mice [4]; [7]) | p, CFC Re-exposure Freezing (%), Saline vs. PF04995274 (3 mg/kg) (129S6/SvEv mice [4]; [7]) | p, CFC Re-exposure Freezing (%), Saline vs. PF04995274 (10 mg/kg) (129S6/SvEv mice [4]; [7]) | p, CFC Re-exposure, PF04995274 (3 mg/kg) vs. PF04995274 (10 mg/kg) (129S6/SvEv mice [4]; [8]) | p, CFC Re-exposure, Saline vs. PF04995274 (3 mg/kg) (129S6/SvEv mice [4]; [8]) | p, CFC Re-exposure, Saline vs. PF04995274 (10 mg/kg) (129S6/SvEv mice [4]; [8]) | freezing during CFC training (129S6/SvEv mice [4]; male 129S6/SvEv, (R,S)-ketamine 30, prucalopride 3 or 10, PF-04995274 3 or 10 mg/kg, 1 week before CFC, vs saline) | freezing at re-exposure to the training context (learned fear) vs saline (129S6/SvEv mice [4]; male 129S6/SvEv, single i.p. injection 1 week before CFC, re-exposure 5 days later, 10 mg/kg)
1 | COc1[nH]c2ccc(F)cc2c1C(=O)OCC1CCN(CCNS(C)(=O)=O)CC1.NS(=O)(=O)O [GR125487, 5-Fluoro-2-methoxy-[1-[2-[(methylsulfonyl)amino]ethyl]-4-piperidinyl]-1H-indole-3-methylcarboxylate sulfamate] | occluded | prevented | prevented | – | – | – | – | – | – | – | – | – | – | – | – | – | – | –
2 | OC1(CN2CCC(COc3noc4cccc(OC5CCOC5)c34)CC2)CCOCC1 (stereo not drawn) [PF-04995274] | – | – | – | 0.0941 | 0.1259 | 0.0023 | 0.1050 | 0.0027 | comparable levels of immobility | decreased immobility time | 0.0619 | 0.6871 | 0.0255 | 0.0619 | 0.6871 | 0.0255 | comparable levels of freezing | attenuated learned fear
